Source: patent publication US6759238B1, “Multidrug resistance associated proteins and uses thereof” (priority 1999, dated 2004)
pIC50: −log10 of the molar value. Read-outs that look alike come from different tables or passages of the source. Blank lines part the entries; values can stand above or below the molecule they belong to.

Key:
[1] = tested on: CEM-SS cells; experiment: Cytotoxicity assay (growth inhibition, Coulter counter); settings: CEM-SS
Description: […] Each result is the mean of one representative experiment performed in duplicate. The cultures with the purine nucleosides adenosine, 2′-deoxyadenosine, and arabinosyladenine contained 5 μM deoxycoformycin to inhibit adenosine deaminase activity.
(§1) All assays were performed in 24-well tissue culture plates (Costar, Cambridge, Ma.). […] At the end of the incubation, the cell concentrations, sizes, and volumes were counted in a Coulter counter (Coulter Electronics, Hialeah. Fla.).

[2] = tested on: CEM-r1 cells; experiment: as above; settings: for Relative Resistance: CEM-r1 vs CEM-SS (Table 3); for Cross-resistance of CEM-r1 cells (in words): relative sensitivity of wild-type and CEM-r1 cells
Description: Selection for PMEA resistance was carried out by exposing CEM-SS cells in culture to increasing concentrations of PMEA, over several months.
The IC50 values were obtained after 2 days of culture. Each result is the mean of one representative experiment performed in duplicate. The cultures with the purine nucleosides adenosine, 2′-deoxyadenosine, and arabinosyladenine contained 5 μM deoxycoformycin to inhibit adenosine deaminase activity.
as §1

[3] = tested on: CEM-r1 cells; experiment: Efflux of [3H]-AZT and its metabolites; format: in vitro ADME, human
Description: Cells were incubated for 60 minutes with [^3H]-AZT (10 μM) after which they were washed free of radioactivity, resuspended in drug-free medium and the intracellular and the extracellular concentration of [^3H]-AZT were measured. […] At least 80% of the AZTMP present intracellularly in CEM-r1 cells was excreted into the medium in 10 minutes (FIG. 6A).
(§2) Referring to Table 6 in greater detail, efflux kinetics were studied. Transport analysis of PMEA was conducted as previously described^48. […] The cells were then washed free of radioactivity and then incubated in drug-free medium in the presence of sodium azide and 2-deoxy-D-glucose. At various time periods, the amount of intracellular AZTMP was measured. As reported in Table 6, depletion of ATP led to an inhibition of AZTMP efflux (i.e. a significant accumulation of AZTMP in the CEM-r1 cells but not in the CEM-SS cells).
The suspension was centrifuged at 3,300 rpm for 7 minutes. All but 1 ml of the supernatant medium containing the free drug was aspirated. […] The cell pellet was then washed with ice-cold medium and resuspended at the same concentration in drug-free medium and maintained at 37° C. […] An aliquot of the top layer (cell free media) was analyzed for the quantitation of AZT and its metabolites.

[4] = tested on: CEM-SS cells; experiment: Phosphorylation of AZT; format: in vitro ADME, human; settings: 10 μM AZT
Description: (§3) The appearance of the phosphorylated metabolites into the medium was also determined in both the cell lines. AZTDP and AZTTP were not detected in the medium of either CEM-SS or CEM-r1 cells. However, the amount of AZTMP accumulated in the media was approximately 3-fold higher in CEM-r1 cells than in CEM-SS cells.
(§4) The cartridges were conditioned with 10% MeOH Ammonium Phosphate Buffer (5 mM, pH 4.0). The sample was loaded onto the column. […] AZTDP and AZTTP were eluted with 10% MeOH Ammonium Phosphate Buffer (700 mm, pH 4.6).

[5] = tested on: CEM-r1 cells; experiment: Phosphorylation of AZT; format: in vitro ADME, human; settings: CEM-r1, 10 μM AZT
Description: as §3, §4

[6] = tested on: CEM-r1 cells; experiment: Efflux of PMEA from bispom-PMEA loaded cells; format: in vitro ADME, human; settings: CEM-r1, 3 min incubation, efflux at 15 minutes
Description: (§5) To examine whether the resistant cells could be altered in their capacity to retain the phosphonate analog, the clearance of [^3H]PMEA and its metabolites from CEM-SS and CME-r1 cells was determined. […] Aliquots of cells and medium sampled at different intervals over a period of 2 hr were analyzed by HPLC, and the results are shown in FIG. 4. […] Some of this clearance was probably due to the anabolism of PMEA, because the PMEAp- and PMEApp-associated radioactivity continued to accumulate within the cells, but the majority of the radioactivity was excreted into the medium as PMEA. In contrast to the results with parental cells, loss of intracellular PMEA-associated radioactivity in the resistant CEM-r1 cells was extremely rapid and the majority of the radioactivity within the cells was excreted into the medium within 20-30 minutes of incubation (FIG. 4).
(§6) Both CEM-SS and CME-r1 cells were incubated for 3 minutes with increasing concentrations (range 0.07 mM to 8.80 mM) of the prodrug for the selecting agent, Bis(POM)PMEA. After incubation, the cells were pelleted and reconstituted in drug-free medium, and the amount of PMEA present in the medium and intracellularly was measured 15 minutes after resuspension. The amount of PMEA effluxing out into the medium at 15 minutes increased initially with increasing concentration (FIG. 7A).
CEM-r1 cells were incubated with 0.07-8.8 mM Bis(POM)PMEA for 3 minutes. The cells were pelleted and reconstituted in either drug-free medium or in medium containing 0.5 mM PMEA, and the amount of PMEA present in the medium and intracellularly was measured 15 minutes after resuspension.
as §2
(§7) At the indicated times, extracts were prepared from the cells and the medium, and the prodrug and its various nucleoside/nucleotide metabolites were analyzed by HPLC as described previously (24).

[7] = tested on: CEM-SS cells; experiment: Uptake and metabolism of [3H]bispom-PMEA
Description: (§8) Therefore, the metabolism of [^3H]bispom-PMEA (15), a lipophilic prodrug of PMEA, was analyzed in the two cell lines in order to further examine the mechanism of resistance in the mutant cell line.

[8] = tested on: CEM-r1 cells; experiment: Uptake and metabolism of [3H]bispom-PMEA
Description: as §8

[9] = tested on: CEM-SS cells; experiment: Efflux of PMEA from bispom-PMEA loaded cells; format: in vitro ADME, human; settings: CEM-SS, 3 min incubation, efflux at 15 minutes
Description: as §5, §6, §2, §7

[10] = CEM-r1, 2 days of culture (Table 3)
[11] = CEM-SS, 1 μM [3H]bispom-PMEA, 15 minutes
[12] = CEM-r1, 1 μM [3H]bispom-PMEA, 15 minutes

Structure (SMILES): Nc1nc(Cl)nc2c1ncn2[C@H]1C[C@H](O)[C@@H](CO)O1 [2-Chlorodeoxyadenosine]
- pIC50 ([1]; Homo sapiens, 48 h): 7.10
- Relative Resistance [2]: 5.5
- pIC50 ([2]; Homo sapiens, 48 h): 6.40
- Cross-resistance of CEM-r1 cells (in words) [2]: partially resistant

Structure (SMILES): Nc1nc(F)nc2c1ncn2[C@@H]1O[C@H](CO)[C@@H](O)[C@@H]1O [2-Fluoroarabinosyladenine]
- pIC50 ([1]; 2 days of culture (Table 3)): 5.92
- pIC50 [2, 10]: 5.36
- Relative Resistance [2]: 3.7
- Cross-resistance of CEM-r1 cells (in words) [2]: partially resistant

Structure (SMILES): Nc1ncnc2c1ncn2[C@H]1C[C@H](O)[C@@H](CO)O1 [2′-Deoxyadenosine]
- pIC50 ([1]; Homo sapiens, 48 h): 5.77
- Relative Resistance [2]: ˜1
- pIC50 ([2]; Homo sapiens, 48 h): 5.60

- Change of intracellular levels over the time period studied [3]: did not change significantly
- Share of total cellular anabolites [3]: 1%
Structure (SMILES): Cc1cn([C@H]2C[C@H](N=[N+]=[N-])[C@@H](COP(=O)(O)OP(=O)(O)O)O2)c(=O)[nH]c1=O [AZTDP]

- Appearance in the medium [4]: not detected
- Intracellular Concentration ([4]; 4 hours): 1.3 µM
- Intracellular Concentration ([4]; 8 hours): 1.5 µM
- Intracellular Concentration ([4]; 24 hours): 1.3 µM
- Appearance in the medium [5]: not detected
- Intracellular Concentration ([5]; 4 hours): 0.36 µM
- Intracellular Concentration ([5]; 8 hours): 0.34 µM
- Intracellular Concentration ([5]; 24 hours): 0.43 µM
- Change of intracellular levels over the time period studied [3]: did not change significantly
- Share of total cellular anabolites ([3]; human, 10 μM): 1%
Structure (SMILES): Cc1cn([C@H]2C[C@H](N=[N+]=[N-])[C@@H](CO[P@](=O)(O)O[P@](=O)(O)OP(=O)(O)O)O2)c(=O)[nH]c1=O [AZTTP]

Structure (SMILES): Nc1ncnc2c1ncn2[C@@H]1O[C@H](CO)[C@@H](O)[C@H]1O [Adenosine]
- pIC50 ([1]; Homo sapiens, 48 h): 4.42
- Relative Resistance [2]: 5.4
- pIC50 ([2]; Homo sapiens, 48 h): 3.69
- Cross-resistance of CEM-r1 cells (in words) [2]: partially resistant

Structure (SMILES): Nc1ncnc2c1ncn2[C@@H]1O[C@H](CO)[C@@H](O)[C@@H]1O [Arabinosyladenine]
- pIC50 ([1]; Homo sapiens, 48 h): 6.15
- Relative Resistance [2]: ˜1
- pIC50 ([2]; Homo sapiens, 48 h): 6.05

Structure (SMILES): CC(C)(C)C(=O)OCOP(=O)(COCCn1cnc2c(N)ncnc21)OCOC(=O)C(C)(C)C [Bispom-PMEA, bis(pivaloyloxymethyl)-9-(2-phosphonylmethoxyethyl)adenine]
- Prodrug concentration above which the amount of PMEA effluxed did not increase significantly [6]: > 4.4 mM
- Metabolite Levels, Cells [7, 11]: 0.03 µM
- Metabolite Levels, Medium [7, 11]: 490 nM
- Radioactivity present in the cells detected as the intact pro-drug ([7]; after incubation with [3H]bispom-PMEA, similar in parental and resistant cells): ~2%
- Initial uptake, difference between the two cell lines ([8]; 1 μM [3H]bispom-PMEA, early time course (120 sec), CEM-SS vs CEM-r1): no significant difference
- Metabolite Levels, Cells [8, 12]: 0.04 µM
- Metabolite Levels, Medium [8, 12]: 429 nM
- pIC50 ([1]; 2 days of culture (Table 3)): 6.59
- Prodrug concentration above which the amount of PMEA effluxed did not increase significantly [9]: higher than 2.2 mM
- pIC50 [2, 10]: 4.49
- Relative Resistance [2]: 123
- Cross-resistance of CEM-r1 cells (in words) [2]: highly cross-resistant

Structure (SMILES): COc1cc2c(c(OC)c1OC)-c1ccc(OC)c(=O)cc1[C@@H](NC(C)=O)CC2 [Colchicine]
- Cross-resistance of CEM-r1 cells (in words) [2]: not resistant
